Measured values from US20170122958A1, “Enzymes Functional Probes” (University of Dundee, priority 2013, published 2017).

Assays:
Assay in all cases: DSF thermal shift
Assay type in all cases: binding
Brd2(1)*(Trp097Phe) = target: T1, Brd2(1)*(Trp097Phe) (Homo sapiens, UniProt P25440, W97F); conditions: mutant
T1 construct: Plasmids of the eight single BET bromodomain constructs Brd2(1), Brd2(2), Brd3(1), Brd3(2); His6 (N); made in house; host or cells: E. coli BL21(DE3)
Description: (§1) DSF assays were performed on a LightCycler®480 from Roche or a Mx3005P Real Time PCR machine from Stratagene. […] SYPRO®Orange from Invitrogen Molecular Probes® was used as a reporter dye to monitor the denaturing process of the proteins. Samples were assayed on a 96-well plate with final protein concentrations of 2 μM for the LightCycler®480 and 6 μM for Mx3005P. Compounds were added at a final concentration of 10 μM for the LightCycler®480 and 30 μM for Mx3005P, while the tetra acetylated histone peptide was added to a final concentration of 100 μM and 300 μM respectively. […] The temperature was raised with a step of 0.6° C. per minute from 37° C. to 95° C. with the LightCycler®480 collecting 39 measurements per ° C., and 1° C. per minute from 25° C. to 95° C. with Mx3005P, collecting fluorescence readings at the end of each interval. Each sample was run in triplicates.
(§2) Collected data was analysed by IGOR Pro 6, a scientific software tool from Wave Metrics, Inc. Analysis was done following the recommendations of Niesen et al.. Fluorescence intensity was plotted as a function of temperature, generating a sigmoidal curve described by a two-state transition from folded to unfolded protein. Curves were fitted by the following sigmoidal equation: […]
(§3) A1 and A2 are the values of minimum and maximum intensities, respectively, x0 is the inflection point and dx is the rate. Fitted curves were differentiated in IGOR Pro 6 and the maximum of the first derivative was identified using the same program. These values correspond to the inflection points of the transition curves and thus to the melting temperatures of the proteins (Tm).

Brd2(2)*(Trp370Phe) = target: T2, Brd2(2)*(Trp370Phe) (Homo sapiens, UniProt P25440, W370F); conditions: mutant
T2 construct: Plasmids of the eight single BET bromodomain constructs Brd2(1), Brd2(2), Brd3(1), Brd3(2); His6 (N); made in house; host or cells: E. coli BL21(DE3)
Description: as §1, §2, §3

Brd2(1) = target: T3, Brd2(1) (Homo sapiens, UniProt P25440); conditions: wild type
T3 construct: Plasmids of the eight single BET bromodomain constructs Brd2(1), Brd2(2), Brd3(1), Brd3(2); His6 (N); made in house; host or cells: E. coli BL21(DE3)
Description: as §1, §2, §3

Brd2(1)*(Trp097His) = target: T4, Brd2(1)*(Trp097His) (Homo sapiens, UniProt P25440, W97H); conditions: mutant
T4 construct: Plasmids of the eight single BET bromodomain constructs Brd2(1), Brd2(2), Brd3(1), Brd3(2); His6 (N); made in house; host or cells: E. coli BL21(DE3)
Description: as §1, §2, §3

Brd2(2)*(Trp370His) = target: T5, Brd2(2)*(Trp370His) (Homo sapiens, UniProt P25440, W370H); conditions: mutant
T5 construct: Plasmids of the eight single BET bromodomain constructs Brd2(1), Brd2(2), Brd3(1), Brd3(2); His6 (N); made in house; host or cells: E. coli BL21(DE3)
Description: as §1, §2, §3

Brd2(2) = target: T6, Brd2(2) (Homo sapiens, UniProt P25440); conditions: wild type
T6 construct: Plasmids of the eight single BET bromodomain constructs Brd2(1), Brd2(2), Brd3(1), Brd3(2); His6 (N); made in house; host or cells: E. coli BL21(DE3)
Description: as §1, §2, §3

Brd2(2)*(Met438-Leu) = target: T7, Brd2(2)*(Met438-Leu) (Homo sapiens, UniProt P25440, M438L); conditions: mutant
T7 construct: Plasmids of the eight single BET bromodomain constructs Brd2(1), Brd2(2), Brd3(1), Brd3(2); His6 (N); made in house; host or cells: E. coli BL21(DE3)
Description: (§4) DSF assays were performed on a LightCycler®480 from Roche or a Mx3005P Real Time PCR machine from Stratagene. Prior to DSF assays, frozen proteins were buffer exchanged using Vivaspin®6 concentrators with a 10 kDa cutoff on a Centrifuge 5430 from Eppendorf at a speed of 6000×g to remove glycerol and to buffer the proteins in 20 mM HEPES pH 7.5 at 25° C. and 100 mM NaCl. SYPRO®Orange from Invitrogen Molecular Probes® was used as a reporter dye to monitor the denaturing process of the proteins. Samples were assayed on a 96-well plate with final protein concentrations of 2 μM for the LightCycler®480 and 6 μM for Mx3005P. Compounds were added at a final concentration of 10 μM for the LightCycler®480 and 30 μM for Mx3005P, while the tetra acetylated histone peptide was added to a final concentration of 100 μM and 300 μM respectively. […] The temperature was raised with a step of 0.6° C. per minute from 37° C. to 95° C. with the LightCycler®480 collecting 39 measurements per ° C., and 1° C. per minute from 25° C. to 95° C. with Mx3005P, collecting fluorescence readings at the end of each interval. Each sample was run in triplicates.
as §2, §3

Brd2(2)*(Met438-Ala) = target: T8, Brd2(2)*(Met438-Ala) (Homo sapiens, UniProt P25440, M438A); conditions: mutant
T8 construct: Plasmids of the eight single BET bromodomain constructs Brd2(1), Brd2(2), Brd3(1), Brd3(2); His6 (N); made in house; host or cells: E. coli BL21(DE3)
Description: as §4, §2, §3

Brd2(1)*(Met165-Leu) = target: T9, Brd2(1)*(Met165-Leu) (Homo sapiens, UniProt P25440, M165L); conditions: mutant
T9 construct: Plasmids of the eight single BET bromodomain constructs Brd2(1), Brd2(2), Brd3(1), Brd3(2); His6 (N); made in house; host or cells: E. coli BL21(DE3)
Description: as §4, §2, §3

Brd2(1)*(Met165Ala) = Brd2(1)*(Met165Ala) (Homo sapiens, UniProt P25440, M165A); parameters: Plasmids of the eight single BET bromodomain constructs Brd2(1), Brd2(2), Brd3(1), Brd3(2); His6 (N); made in house; host or cells: E. coli BL21(DE3); conditions: mutant
Description: as §4, §2, §3

T3 sequence (P25440 74-180 limits assumed): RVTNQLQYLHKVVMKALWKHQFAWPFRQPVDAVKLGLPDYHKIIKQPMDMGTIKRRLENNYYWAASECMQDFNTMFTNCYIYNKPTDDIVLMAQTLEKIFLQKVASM
T7 sequence (P25440 344-453 M438L limits assumed): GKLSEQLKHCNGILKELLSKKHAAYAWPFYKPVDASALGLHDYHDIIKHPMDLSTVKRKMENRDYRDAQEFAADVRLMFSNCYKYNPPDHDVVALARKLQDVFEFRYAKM
Chain of Brd2(1)*(Met165Ala) (P25440 74-180 M165A limits assumed): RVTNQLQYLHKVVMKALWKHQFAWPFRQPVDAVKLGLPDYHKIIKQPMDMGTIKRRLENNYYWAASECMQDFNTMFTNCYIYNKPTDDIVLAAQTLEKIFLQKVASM
T9 sequence (P25440 74-180 M165L limits assumed): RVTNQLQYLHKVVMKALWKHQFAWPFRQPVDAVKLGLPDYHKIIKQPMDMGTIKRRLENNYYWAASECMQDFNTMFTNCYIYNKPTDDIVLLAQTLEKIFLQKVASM
T2 sequence (P25440 344-453 W370F limits assumed): as the sequence (P25440 344-453 M438L limits assumed) above, with W27F, L95M counted along it
T5 sequence (P25440 344-453 W370H limits assumed): as the sequence (P25440 344-453 M438L limits assumed) above, with W27H, L95M counted along it
T1 sequence (P25440 74-180 W97F limits assumed): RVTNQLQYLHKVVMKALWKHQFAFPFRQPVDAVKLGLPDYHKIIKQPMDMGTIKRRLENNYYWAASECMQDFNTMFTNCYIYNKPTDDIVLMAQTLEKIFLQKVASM
T6 sequence (P25440 344-453 limits assumed): as the sequence (P25440 344-453 M438L limits assumed) above, with L95M counted along it
T4 sequence (P25440 74-180 W97H limits assumed): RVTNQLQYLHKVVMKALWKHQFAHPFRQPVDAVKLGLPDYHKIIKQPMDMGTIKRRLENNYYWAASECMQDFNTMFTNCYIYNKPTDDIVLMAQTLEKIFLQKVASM
T8 sequence (P25440 344-453 M438A limits assumed): as the sequence (P25440 344-453 M438L limits assumed) above, with L95A counted along it

Compound | Thermal stabilisation brd2(1)W097F (Brd2(1)*(Trp097Phe)) | ΔTm Brd2(1)*(Tryp097-Phe) (Brd2(1)*(Trp097Phe)) | Thermal stabilisation brd2(2)W370F (Brd2(2)*(Trp370Phe)) | ΔTm Brd2(2)*(Tryp370-Phe) (Brd2(2)*(Trp370Phe)) | Thermal stabilisation brd2(1) (Brd2(1)) | ΔTm Brd2(1) (Brd2(1)) | Thermal stabilisation brd2(1)W097H (Brd2(1)*(Trp097His)) | ΔTm Brd2(1)*(Tryp097-His) (Brd2(1)*(Trp097His)) | Thermal stabilisation brd2(2)W370H (Brd2(2)*(Trp370His)) | ΔTm Brd2(2)*(Tryp370-His) (Brd2(2)*(Trp370His)) | Thermal stabilisation brd2(2) (Brd2(2)) | ΔTm Brd2(2) (Brd2(2)) | ΔTm Brd2(2)*(Met165-Leu) (Brd2(2)*(Met438-Leu)) | ΔTm Brd2(2)*(Met165-Ala) (Brd2(2)*(Met438-Ala)) | ΔTm Brd2(1)*(Met165-Leu) (Brd2(1)*(Met165-Leu)) | ΔTm Brd2(1)*(Met165-Ala) (Brd2(1)*(Met165Ala))
COC(=O)CC1N=C(c2ccc(Cl)cc2C)c2cc(OC)ccc2-n2c(C)nnc21 (racemic) [Compound 8, (+−)-methyl 2-(6-(4-chloro-2-methylphenyl)-8-methoxy-1-methyl-4H-benzo[f][1,2,4]triazolo[4,3-a][1,4]diazepin-4-yl)acetate] | 1.4 ± 0.2 °C | 1.4 ± 0.2 K | 2.8 ± 0.1 °C | 2.8 ± 0.1 K | 6.3 ± 0.1 °C | 6.3 ± 0.1 K | 0.9 ± 0.3 °C | 0.9 ± 0.3 K | 1.1 ± 0.2 °C | 1.1 ± 0.2 K | 6.6 ± 0.2 °C | 6.6 ± 0.2 K | – | – | – | –
COC(=O)CC1N=C(c2ccc(Cl)c(C)c2)c2cc(OC)ccc2-n2c(C)nnc21 (racemic) [Compound 9, (+−)-methyl 2-(6-(4-chloro-3-methylphenyl)-8-methoxy-1-methyl-4H-benzo[f][1,2,4]triazolo[4,3-a][1,4]diazepin-4-yl)acetate] | −0.1 ± 0.2 °C | −0.1 ± 0.2 K | 1.5 ± 0.0 °C | 1.5 ± 0.0 K | 1.5 ± 0.2 °C | 1.5 ± 0.2 K | 0.2 ± 0.2 °C | 0.2 ± 0.2 K | 1.0 ± 0.3 °C | 1.0 ± 0.3 K | 3.2 ± 0.1 °C | 3.2 ± 0.1 K | – | – | – | –
COC(=O)CC1N=C(c2cc(C)ccc2C)c2cc(OC)ccc2-n2c(C)nnc21 (racemic) [Compound 10, (+−)-methyl 2-(6-(2,5-dimethylphenyl)-8-methoxy-1-methyl-4H-benzo[f][1,2,4]triazolo[4,3-a][1,4]diazepin-4-yl)acetate] | 0.1 ± 0.2 °C | 0.1 ± 0.2 K | 0.6 ± 0.1 °C | 0.6 ± 0.1 K | 1.8 ± 0.2 °C | 1.8 ± 0.2 K | −0.4 ± 0.3 °C | −0.4 ± 0.3 K | −0.1 ± 0.1 °C | −0.1 ± 0.1 K | 3.5 ± 0.1 °C | 3.5 ± 0.1 K | – | – | – | –
COC(=O)CC1N=C(c2cc(Cl)ccc2Cl)c2cc(OC)ccc2-n2c(C)nnc21 (centres unmarked) [Compound 17] | – | 0.0 ± 0.2 K | – | 0.3 ± 0.0 K | – | 1.2 ± 0.2 K | – | −0.4 ± 0.2 K | – | −0.4 ± 0.2 K | – | 2.5 ± 0.2 K | – | – | – | –
Cc1cc(C)c(S(=O)(=O)Nc2ccc3c(c2)CN(C)C(=O)N3)c(C)c1 [Compound 42, 2,4,6-trimethyl-N-(3-methyl-2-oxo-1,2,3,4-tetrahydroquinazolin-6 yl)benzenesulfonamide] | – | 0.7 ± 0.2 K | – | 1.8 ± 0.2 K | – | 0.7 ± 0.3 K | – | 0.2 ± 0.4 K | – | 0.2 ± 0.2 K | – | 2.7 ± 0.5 K | – | – | – | –
CN1Cc2cc(NS(=O)(=O)c3c(Cl)cccc3Cl)ccc2NC1=O [Compound 43, 2,6-dichloro-N-(3-methyl-2-oxo-1,2,3,4-tetrahydroquinazolin-6-yl)benzenesulfonamide] | – | 0.2 ± 0.3 K | – | 1.8 ± 0.3 K | – | 1.2 ± 0.2 K | – | 0.2 ± 0.2 K | – | 0.3 ± 0.1 K | – | 0.6 ± 0.1 K | – | – | – | –
CN1Cc2cc(NS(=O)(=O)c3ccccc3-c3ccccc3)ccc2NC1=O [Compound 44, N-(3-methyl-2-oxo-1,2,3,4-tetrahydroquinazolin-6-yl)-[1,1′-biphenyl]-2-sulfonamide] | – | 1.8 ± 0.3 K | – | 2.2 ± 0.3 K | – | 2.8 ± 0.4 K | – | 1.3 ± 0.2 K | – | 0.5 ± 0.3 K | – | 2.1 ± 0.4 K | – | – | – | –
Cc1cccc(Cl)c1S(=O)(=O)Nc1ccc2c(c1)CN(C)C(=O)N2 [Compound 45, 2-chloro-6-methyl-N-(3-methyl-2-oxo-1,2,3,4-tetrahydroquinazolin-6-yl)benzenesulfonamide] | – | – | – | 2.3 ± 0.1 K | – | 3.9 ± 0.2 K | – | 0.0 ± 0.3 K | – | 0.8 ± 0.1 K | – | 5.3 ± 0.5 K | – | – | – | –
CN1Cc2cc(NS(=O)(=O)c3ccc(C(C)(C)C)cc3)ccc2NC1=O [Compound 46, 4-(tert-butyl)-N-(3-methyl-2-oxo-1,2,3,4-tetrahydroquinazolin-6-yl)benzenesulfonamide] | – | – | – | – | – | 1.1 ± 0.2 K | – | – | – | – | – | 0.8 ± 0.1 K | 0.3 ± 0.2 K | 2.5 ± 0.2 K | 0.1 ± 0.1 K | 5.1 ± 0.2 K
COc1ccc(S(=O)(=O)Nc2ccc3c(c2)CN(C)C(=O)N3)cc1 [Compound 47, 4-methoxy-N-(3-methyl-2-oxo-1,2,3,4-tetrahydroquinazolin-6-yl)benzenesulfonamide] | – | – | – | – | – | 2.4 ± 0.1 K | – | – | – | – | – | 3.1 ± 0.4 K | 1.3 ± 0.2 K | 1.6 ± 0.3 K | 0.1 ± 0.3 K | 0.0 ± 0.3 K
CN1Cc2cc(NS(=O)(=O)c3ccc(-c4ccccc4)cc3)ccc2NC1=O [Compound 48, N-(3-methyl-2-oxo-1,2,3,4-tetrahydroquinazolin-6-yl)-[1,1′-biphenyl]-4-sulfonamide] | – | – | – | – | – | 0.5 ± 0.2 K | – | – | – | – | – | 0.0 ± 0.2 K | 0.0 ± 0.1 K | 0.0 ± 0.1 K | 0.0 ± 0.1 K | 1.5 ± 0.4 K
Cc1cc(C)cc(S(=O)(=O)Nc2ccc3c(c2)CN(C)C(=O)N3)c1 [Compound 49, 3,5-dimethyl-N-(3-methyl-2-oxo-1,2,3,4-tetrahydroquinazolin-6-yl)benzenesulfonamide] | – | – | – | – | – | 2.6 ± 0.5 K | – | – | – | – | – | 2.8 ± 0.2 K | 4.9 ± 0.3 K | 2.5 ± 0.2 K | 4.1 ± 0.6 K | 1.1 ± 0.5 K
COc1cc(C)ccc1S(=O)(=O)Nc1ccc2c(c1)CN(C)C(=O)N2 [Compound 52, 2-methoxy-4-methyl-N-(3-methyl-2-oxo-1,2,3,4-tetrahydroquinazolin-6-yl)benzenesulfonamide] | – | – | – | – | – | 4.7 ± 0.2 K | – | – | – | – | – | 2.8 ± 0.2 K | 2.4 ± 0.1 K | 2.0 ± 0.2 K | 3.1 ± 0.2 K | 1.2 ± 0.2 K
